This assay has as its target T1, crosslinked smooth muscle actomyosin (chicken gizzard smooth muscle myosin subfragment-1 crosslinked to cardiac or skeletal actin) (Gallus gallus, UniProt P10587).
T1 construct: chicken gizzard smooth muscle myosin subfragment-1; from tissue; host or cells: chicken gizzard
As to the kind of experiment: Lead optimization pyruvate kinase/horseradish peroxidase/pyruvate oxidase-coupled ATPase assay (compound dose response). It is filed as biochemical. Particulars: read-out: IC50 Arithmetic Mean. An outline of the steps: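 IC50 is the midpoint of a 4-parameter dose–response fit of Amplex Red fluorescence (480/615 nm). Buffer was 12 mM potassium PIPES pH 7.00 at 22 °C with 100 mM KCl, 2 mM MgCl2, 0.15 mM ATP and 2 mM phosphate, with PK/pyruvate oxidase/HRP coupling. Enzyme: smooth muscle myosin S1 crosslinked to cardiac or skeletal actin, dosed empirically by activity.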

IC50 data for 26 compounds are collected here from patent US8071625B2, “Certain chemical entities, compositions, and methods” (Cytokinetics, Inc., priority 2006, dated 2011).

As to `CCc1ccc(NC(=O)OCC2(C(=O)NCc3ccccc3Cl)CCCN(C(=O)OC)C2)cc1` (centres unmarked) [methyl 3-{N-[(2-chlorophenyl)methyl]carbamoyl}-3-{[N-(4-ethylphenyl)carbamoyloxy]methyl}piperidinecarboxylate], the concentration for half-maximal inhibition (IC50) (usually the concentration that inhibits the measured activity by half) amounted to 474 nM.

Consider `CCc1ccc(NC(=O)OCC2(C(=O)NCc3ccccc3Cl)CCN(C(=O)CCC(=O)OC)CC2)cc1` [methyl 4-(4-{N-[(2-chlorophenyl)methyl]carbamoyl}-4-{[N-(4-ethylphenyl)carbamoyloxy]methyl}piperidyl)-4-oxobutanoate], for which the half-maximal inhibitory concentration (IC50) turned out to be 426 nM.

As for `CCc1ccc(NC(=O)OCC2(C(=O)NCc3ccccc3Cl)CCN(C(=O)OC)CC2)cc1` [methyl 4-{N-[(2-chlorophenyl)methyl]carbamoyl}-4-{[N-(4-ethylphenyl)carbamoyloxy]methyl}piperidinecarboxylate], the IC50 is 530 nM.

With `COC(=O)c1ccc(NC(=O)OCC2(C(=O)NCc3ccccc3Cl)CCN(C(=O)CN)CC2)cc1` [methyl 4-{[(1-(2-aminoacetyl)-4-{N-[(2-chlorophenyl)methyl]carbamoyl}-4-piperidyl)methoxy]carbonylamino}benzoate], the IC50 turned out to be 1810 nM.

Regarding `COC(=O)c1ccc(NC(=O)OCC2(C(=O)NCc3ccccc3Cl)CCOCC2)cc1` [methyl 4-{[(4-{N-[(2-chlorophenyl)methyl]carbamoyl}-2H-3,4,5,6-tetrahydropyran-4-yl)methoxy]carbonylamino}benzoate], the IC50 is 3550 nM.

Turning to `CCc1ccc(NC(=O)OC[C@H](C)N(CC(=O)OC(C)(C)C)C(=O)NCc2ccccc2Cl)cc1` [tert-butyl 2-(N-{(1S)-2-[N-(4-ethylphenyl)carbamoyloxy]-isopropyl}{[(2-chlorophenyl)methyl]amino}carbonylamino)acetate], the half-maximal inhibitory concentration (IC50) was 18500 nM.

As for `CCc1ccc(NC(=O)OCC2(C(=O)NCc3ccccc3Cl)CCN(C(=O)C3CCN3C(=O)OC(C)(C)C)CC2)cc1` (centres unmarked) [tert-butyl 2-[(4-{N-[(2-chlorophenyl)methyl]carbamoyl}-4-{[N-(4-ethylphenyl)carbamoyloxy]methyl}piperidyl)carbonyl]azetidinecarboxylate], the IC50 was found to be 4830 nM.

With `CCc1ccc(NC(=O)OCC2(C(=O)NCc3ccccc3Cl)CCN(C(=O)C3COCCN3C(=O)OC(C)(C)C)CC2)cc1` (centres unmarked) [tert-butyl 3-[(4-{N-[(2-chlorophenyl)methyl]carbamoyl}-4-{[N-(4-ethylphenyl)carbamoyloxy]methyl}piperidyl)carbonyl]morpholine-4-carboxylate], the half-inhibitory concentration (IC50) is 1680 nM.

Regarding `CCc1ccc(NC(=O)OCC2(C(=O)NCc3ccccc3Cl)CCN(C(=O)OC(C)(C)C)CC2)cc1` [tert-butyl 4-{N-[(2-chlorophenyl)methyl]carbamoyl}-4-{[N-(4-ethylphenyl)carbamoyloxy]methyl}piperidinecarboxylate], the IC50 came to 3210 nM.

As for `NCC(=O)N1CCC(COC(=O)Nc2ccc3ccccc3c2)(C(=O)NCc2ccccc2Cl)CC1` [{1-(2-aminoacetyl)-4-[(N-(2-naphthyl)carbamoyloxy)methyl](4-piperidyl)}-N-[(2-chlorophenyl)methyl]carboxamide], the concentration for half-maximal inhibition (IC50) turned out to be 83 nM.

Turning to `NCC(=O)N1CCC(COC(=O)Nc2ccc3c(c2)CCC3)(C(=O)NCc2ccccc2Cl)CC1` [{1-(2-aminoacetyl)-4-[(N-indan-5-ylcarbamoyloxy)methyl](4-piperidyl)}-N-[(2-chlorophenyl)methyl]carboxamide], the IC50 was determined as 126 nM.

For `NCC(=O)N1CCC(COC(=O)Nc2ccccc2)(C(=O)NCc2ccccc2Cl)CC1` [{1-(2-aminoacetyl)-4-[(N-phenylcarbamoyloxy)methyl](4-piperidyl)}-N-[(2-chlorophenyl)methyl]carboxamide], the IC50 stood at 9210 nM.

Regarding `CCc1ccc(NC(=O)OC2CCCN(C(=O)NCc3ccccc3C)C2)cc1` (centres unmarked) [{3-[N-(4-ethylphenyl)carbamoyloxy]piperidyl}-N-[(2-methylphenyl)methyl]carboxamide], the half-inhibitory concentration (IC50) turned out to be 5540 nM.

For `CCc1ccc(NC(=O)O[C@@H]2CCCN(C(=O)NCc3ccccc3Cl)C2)cc1` [{(3R)-3-[N-(4-ethylphenyl)carbamoyloxy]piperidyl}-N-[(2-chlorophenyl)methyl]carboxamide], the IC50 came to 1560 nM.

Take `CCc1ccc(NC(=O)O[C@H]2CCCN(C(=O)NCc3ccccc3Cl)C2)cc1` [{(3S)-3-[N-(4-ethylphenyl)carbamoyloxy]piperidyl}-N-[(2-chlorophenyl)methyl]carboxamide]: the IC50 stood at 10200 nM.

Take `CCc1ccc(NC(=O)OCC2(C(=O)NCc3ccccc3C(F)(F)F)CCN(C(=O)CN)CC2)cc1` [{[1-(2-aminoacetyl)-4-(N-{[2-(trifluoromethyl)phenyl]methyl}carbamoyl)(4-piperidyl)]methoxy}-N-(4-ethylphenyl)carboxamide]: the IC50 turned out to be 86 nM.

`CCc1ccc(NC(=O)OCC2(C(=O)NCc3ccc(C(F)(F)F)cc3F)CCN(C(=O)CN)CC2)cc1` [{[1-(2-aminoacetyl)-4-(N-{[2-fluoro-4-(trifluoromethyl)phenyl]methyl}carbamoyl)(4-piperidyl)]methoxy}-N-(4-ethylphenyl)carboxamide]: the half-inhibitory concentration (IC50) came out at 11800 nM.

Turning to `CCc1ccc(NC(=O)OCCN(C)C(=O)NCc2cccc(Cl)c2Cl)cc1` [{[(2,3-dichlorophenyl)methyl]amino}-N-{2-[N-(4-ethylphenyl)carbamoyloxy]ethyl}-N-methylcarboxamide], the IC50 was determined as 59 nM.

With `CN(CCOC(=O)Nc1ccc2ccccc2c1)C(=O)NCc1ccccc1Cl` [{[(2-chlorophenyl)methyl]amino}-N-methyl-N-[2-(N-(2-naphthyl)carbamoyloxy)ethyl]carboxamide], the IC50 was 30 nM.

Regarding `CN(CCOC(=O)Nc1ccc2ncccc2c1)C(=O)NCc1ccccc1Cl` [{[(2-chlorophenyl)methyl]amino}-N-methyl-N-[2-(N-(6-quinolyl)carbamoyloxy)ethyl]carboxamide], the IC50 stood at 1410 nM.

Regarding `CN(CCOC(=O)Nc1ccc(-c2ccccc2)cc1)C(=O)NCc1ccccc1Cl` [{[(2-chlorophenyl)methyl]amino}-N-methyl-N-{2-[N-(4-phenylphenyl)carbamoyloxy]ethyl}carboxamide], the IC50 is 248 nM.

Consider `CCc1ccc(NC(=O)OCC(C)(C)N(C)C(=O)NCc2ccccc2Cl)cc1` [{[(2-chlorophenyl)methyl]amino}-N-{2-[N-(4-ethylphenyl)carbamoyloxy]-tert-butyl}-N-methylcarboxamide], for which the IC50 amounted to 621 nM.

As for `CCc1ccc(NC(=O)OCCN(CCCCO)C(=O)NCc2ccccc2Cl)cc1` [{[(2-chlorophenyl)methyl]amino}-N-{2-[N-(4-ethylphenyl)carbamoyloxy]ethyl}-N-(4-hydroxybutyl) carboxamide], the half-maximal inhibitory concentration (IC50) is 355 nM.

Consider `CCc1ccc(NC(=O)OCCN(CCNC)C(=O)NCc2ccccc2Cl)cc1` [{[(2-chlorophenyl)methyl]amino}-N-{2-[N-(4-ethylphenyl)carbamoyloxy]ethyl}-N-[2-(methylamino)ethyl]carboxamide], for which the IC50 came out at 16300 nM.

Take `CCc1ccc(NC(=O)OCCN(C)C(=O)NCc2ccccc2Cl)cc1` [{[(2-chlorophenyl)methyl]amino}-N-{2-[N-(4-ethylphenyl)carbamoyloxy]ethyl}-N-methylcarboxamide]: the half-inhibitory concentration (IC50) worked out at 84 nM.

With `CCc1ccc(NC(=O)OCCCN(C)C(=O)NCc2ccccc2Cl)cc1` [{[(2-chlorophenyl)methyl]amino}-N-{3-[N-(4-ethylphenyl)carbamoyloxy]propyl}-N-methylcarboxamide], the IC50 is 1670 nM.
